What was measured:
[1] = molecular target: T1, human TLR7 (Homo sapiens, UniProt Q9NYK1); assay: TLR7 NFκB-luc cellular reporter assay in transiently transfected HEK293 cells; format: cell-based; conditions: lowest effective concentration; HEK293 cells transfected with wild type TLR7 and NFκB-luc reporter, 6 h incubation
T1 construct: expressed in transfected cells; host or cells: HEK293
T1 sequence (Q9NYK1 27-1049): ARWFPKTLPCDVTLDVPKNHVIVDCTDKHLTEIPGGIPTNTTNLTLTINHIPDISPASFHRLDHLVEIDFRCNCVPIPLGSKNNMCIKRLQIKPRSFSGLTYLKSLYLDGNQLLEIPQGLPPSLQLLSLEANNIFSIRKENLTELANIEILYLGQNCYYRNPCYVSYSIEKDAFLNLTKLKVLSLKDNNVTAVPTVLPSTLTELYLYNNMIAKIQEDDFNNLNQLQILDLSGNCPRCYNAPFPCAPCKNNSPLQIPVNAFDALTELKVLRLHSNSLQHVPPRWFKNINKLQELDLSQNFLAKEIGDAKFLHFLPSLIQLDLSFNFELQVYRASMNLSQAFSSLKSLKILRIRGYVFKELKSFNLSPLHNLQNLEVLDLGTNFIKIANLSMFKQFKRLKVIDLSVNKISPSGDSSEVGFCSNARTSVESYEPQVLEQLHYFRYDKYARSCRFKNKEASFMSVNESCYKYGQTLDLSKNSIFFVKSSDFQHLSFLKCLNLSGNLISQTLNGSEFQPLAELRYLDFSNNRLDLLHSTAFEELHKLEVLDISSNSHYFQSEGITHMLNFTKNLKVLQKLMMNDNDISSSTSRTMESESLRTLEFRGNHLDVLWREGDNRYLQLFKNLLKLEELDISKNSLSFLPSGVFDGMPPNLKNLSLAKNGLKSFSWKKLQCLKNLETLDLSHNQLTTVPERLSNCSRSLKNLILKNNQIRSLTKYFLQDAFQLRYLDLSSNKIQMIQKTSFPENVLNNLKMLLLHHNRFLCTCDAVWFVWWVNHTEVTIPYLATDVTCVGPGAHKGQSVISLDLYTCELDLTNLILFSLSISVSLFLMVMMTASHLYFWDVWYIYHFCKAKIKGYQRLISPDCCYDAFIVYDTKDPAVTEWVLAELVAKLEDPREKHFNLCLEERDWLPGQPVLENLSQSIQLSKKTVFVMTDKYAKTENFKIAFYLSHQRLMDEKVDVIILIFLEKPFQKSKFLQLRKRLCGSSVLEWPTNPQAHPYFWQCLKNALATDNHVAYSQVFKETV
Experimental: (§1) The ability of compounds to activate human TLR7 and/or TLR8 was assessed in a cellular reporter assay using HEK293 cells transiently transfected with a TLR7 or TLR8 expression vector and NFκB-luc reporter construct. In one instance, the TLR expression construct expresses the respective wild type sequence or a mutant sequence comprising a deletion in the second leucine-rich repeat of the TLR.
(§2) HEK293 cells were grown in culture medium (DMEM supplemented with 10% FCS and 2 mM Glutamine). For transfection of cells in 10 cm dishes, cells were detached with Trypsin-EDTA, transfected with a mix of CMV-TLR7 or TLR8 plasmid (750 ng), NFκB-luc plasmid (375 ng) and a transfection reagent and incubated 24 h at 37° C. in a humidified 5% C02 atmosphere. Transfected cells were then detached with Trypsin-EDTA, washed in PBS and re-suspended in medium to a density of 1.67×10^5 cells/mL. Thirty microliters of cells were then dispensed into each well in 384-well plates, where 10 μL of compound in 4% DMSO was already present. Following 6 h incubation at 37° C., 5% CO2, the luciferase activity was determined by adding 15 μl of STEADY LITE PLUS substrate (PERKIN ELMER) to each well and readout performed on a VIEWLUX ULTRAHTS microplate imager (PERKIN ELMER). Dose response curves were generated from measurements performed in quadruplicates. Lowest effective concentrations (LEC) values, defined as the concentration that induces an effect which is at least two-fold above the standard deviation of the assay, were determined for each compound.

[2] = molecular target: T2, human TLR8 (Homo sapiens, UniProt Q9NR97); assay: TLR8 NFκB-luc cellular reporter assay in transiently transfected HEK293 cells; format: cell-based; conditions: lowest effective concentration; HEK293 cells transfected with wild type TLR8 and NFκB-luc reporter, 6 h incubation
T2 construct: expressed in transfected cells; host or cells: HEK293
T2 sequence (Q9NR97 27-1041): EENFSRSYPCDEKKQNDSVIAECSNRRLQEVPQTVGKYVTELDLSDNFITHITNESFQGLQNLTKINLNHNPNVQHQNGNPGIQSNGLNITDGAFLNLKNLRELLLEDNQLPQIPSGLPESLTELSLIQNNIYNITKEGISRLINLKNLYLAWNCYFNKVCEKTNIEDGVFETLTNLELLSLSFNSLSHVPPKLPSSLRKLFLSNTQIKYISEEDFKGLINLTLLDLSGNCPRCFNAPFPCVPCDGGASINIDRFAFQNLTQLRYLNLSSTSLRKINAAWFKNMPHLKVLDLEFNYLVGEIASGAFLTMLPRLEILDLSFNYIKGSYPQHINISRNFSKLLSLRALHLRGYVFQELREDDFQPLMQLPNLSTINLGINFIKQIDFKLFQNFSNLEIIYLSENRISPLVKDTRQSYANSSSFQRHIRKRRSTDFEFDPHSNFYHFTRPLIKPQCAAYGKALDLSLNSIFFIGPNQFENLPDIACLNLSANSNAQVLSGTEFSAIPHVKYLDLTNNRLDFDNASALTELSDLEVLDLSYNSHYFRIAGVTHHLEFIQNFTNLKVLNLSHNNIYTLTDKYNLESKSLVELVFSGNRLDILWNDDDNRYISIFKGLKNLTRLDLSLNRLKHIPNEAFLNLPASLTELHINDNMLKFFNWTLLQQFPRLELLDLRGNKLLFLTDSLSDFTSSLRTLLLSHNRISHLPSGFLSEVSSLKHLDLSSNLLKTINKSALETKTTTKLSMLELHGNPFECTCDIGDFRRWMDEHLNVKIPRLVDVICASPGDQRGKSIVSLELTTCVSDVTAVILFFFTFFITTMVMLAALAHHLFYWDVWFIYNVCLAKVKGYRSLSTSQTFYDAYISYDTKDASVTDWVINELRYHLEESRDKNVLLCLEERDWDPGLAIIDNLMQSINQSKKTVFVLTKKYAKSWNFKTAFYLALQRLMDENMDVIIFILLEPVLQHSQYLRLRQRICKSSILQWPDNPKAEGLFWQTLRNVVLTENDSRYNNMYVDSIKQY
Experimental: as §1, §2

## CCCC[C@H](CO)Nc1nc(N)nc2c(C)ccc(F)c12 [Compound 26, (R)-2-((2-amino-5-fluoro-8-methylquinazolin-4-yl)amino)hexan-1-ol]
[1]
  hTLR7-wt (LEC): > 100 µM
[2]
  hTLR8-wt (LEC): 0.57 µM
